Two molecules from patent US7422846B2, “Natural ligand for orphan G protein coupled receptor GPR86 and methods of use” (Euroscreen S.A, priority 2001, dated 2008) can be followed below.

The test addresses T1, GPR86 (P2Y13) human receptor (Homo sapiens, UniProt Q9BPV8, T179M).
T1 sequence (Q9BPV8 22-354 T179M): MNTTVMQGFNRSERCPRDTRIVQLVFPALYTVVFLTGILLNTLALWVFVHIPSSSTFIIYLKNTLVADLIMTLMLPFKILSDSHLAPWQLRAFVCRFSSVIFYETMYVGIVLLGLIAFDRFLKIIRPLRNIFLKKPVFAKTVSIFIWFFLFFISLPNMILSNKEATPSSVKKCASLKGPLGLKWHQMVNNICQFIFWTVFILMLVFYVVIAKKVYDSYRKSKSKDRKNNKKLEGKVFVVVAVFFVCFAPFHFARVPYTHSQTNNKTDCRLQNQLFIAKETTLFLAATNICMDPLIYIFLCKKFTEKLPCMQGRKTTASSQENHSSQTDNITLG
Put plainly: IP3 accumulation in 1321N1 cells (AG32) expressing GPR86 (P2Y13) together with Gα16. The format is cell-based. Also on record: expressed in transfected cells; host or cells: 1321N1 astrocytoma clone AG32 (stably expressing Gα16 from pERAEQ2), G418-selected. Particulars: for EC50: 1321N1 cells expressing GPR86 and Gα16, 30 s, mean±S.D. of three independent experiments, read-out: EC50, IP3 accumulation. The method, then: Cells of the invention, for example, 1321N1 cells, are labelled for 24 hours with 10 μCi/ml [^3H] inositol in inositol free DMEM containing 5% FCS, antibiotics, amphotericin, sodium pyruvate and 400 μg/ml G418. Cells are incubated for 2 h in Krebs-Ringer Hepes (KRH) buffer of the following composition (124 mM NaCl, 5 mM KCl, 1.25 mM MgSO4, 1.45 mM CaCl2, 1.25 mM KH2PO4, 25 mM Hepes (pH: 7.4) and 8 mM glucose). The cells are then challenged with various nucleotides for 30 s. The incubation is stopped by the addition of an ice cold 3% perchloric acid solution. IP are extracted and separated on Dowex columns as previously described (25). 2MeSATP and ATP solutions (1 mM) are treated at room temperature with 20 units/ml CPK and 10 Mm cp for 90 min to circumvent problems arising from the contamination and degradation of triphosphate nucleotide solutions.
CHO-K1 and 1321N1 cells were transfected with the recombinant GPR86-pEFIN5 plasmid or with the plasmid alone using the FuGENE™6 transfection reagent (Roche Molecular Biochemicals). A clone called AG32 corresponding to 1321N1 cells previously transfected with pERAEQ2 plasmid encoding Gα16 (provided by Euroscreen), was transfected. The CHO-K1 and 1321N1 transfected cells were selected with 400 μg/ml G418 in complete medium (10% FBS, 100 units/ml penicillin, 100 μg/ml streptomycin and 2.5 μg/ml amphotericin B in respectively Ham's F12 or DMEM (Dulbecco's modified Eagle's) medium) two days after transfection and maintained in the same medium. The AG32 cells were maintained in the same DMEM complete medium supplemented with 500 μg/ml zeocin.
The pool of G418-resistant clones was tested for its functional IP3 response to several nucleotides, according to the method described above. The cells were challenged by various nucleotides at a concentration of 100 μM for 30 s: ATP, ADP, UTP, UDP, ITP, IDP, TDP.
Concentration-action curves for ADP, 2MeSADP and ADPβS. […] 1321N1 transfected cells were incubated in the presence of various concentrations of ADP, 2MeSADP and ADPβS for 30 s. The data represent the mean±S.D. of triplicate experimental points obtained in one representative experiment of three.
AG32 cells were seeded (200,000 cells per dish) on 35 mm (diameter) Petri dishes and labeled for 24 h with 5 μCi/ml [3H]-myoinositol in inositol free DMEM containing 5% fetal calf serum, antibiotics, amphotericin, sodium pyruvate, and 400 μg/ml of G418. Cells were incubated for 2 h in Krebs-Ringer Hepes (KRH) buffer (124 mM NaCl, 5 mM KCl, 1.25 mM MgSO4, 1.45 mM CaCl2, 1.25 mM KH2PO4, 25 mM Hepes (pH 7.4) and 8 mM D-glucose). The cells were then incubated in presence of ADP, ATP or 2MeSATP for 30 s. The incubation was stopped by the addition of 1 ml of an ice-cold 3% perchloric acid solution. Prior to the stimulation, ATP and 2MeSATP (1 mM solutions) were incubated for 90 min at room temperature with 20 units/ml creatine phosphokinase (CPK) and 10 mM creatine phosphate (CP). The reaction was stopped by addition of 10 mM iodoacetamide.
AG32 cells were seeded (200,000 cells per dish) on 35 mm (diameter) Petri dishes and labeled for 24 h with 5 μCi/ml [^3H]-myoinositol in inositol free DMEM containing 5% fetal calf serum, antibiotics, amphotericin, sodium pyruvate, and 400 μg/ml of G418. Cells were incubated for 2 h in Krebs-Ringer Hepes (KRH) buffer (124 mM NaCl, 5 mM KCl, 1.25 mM MgSO4, 1.45 mM CaCl2, 1.25 mM KH2PO4, 25 mM Hepes (pH 7.4) and 8 mM D-glucose). The cells were then incubated in presence of two different concentrations (100 nM and 10 μM) of ADP or ApnA (n=3-6) for 30 s. The incubation was stopped by the addition of 1 ml of an ice-cold 3% perchloric acid solution.
AG32 cells were seeded (200,000 cells per dish) on 35 mm (diameter) Petri dishes and labeled for 24 h with 5 μCi/ml [^3H]-myoinositol in inositol free DMEM containing 5% fetal calf serum, antibiotics, amphotericin, sodium pyruvate, and 400 μg/ml of G418.

Regarding `CSc1nc(N)c2ncn([C@@H]3O[C@H](COP(=O)(O)OP(=O)(O)O)[C@@H](O)[C@H]3O)c2n1` [2MeSADP, 2-methylthio-ADP], the EC50 was found to be 0.0142 ± 0.003 µM.

With `Nc1ncnc2c1ncn2[C@@H]1O[C@H](COP(=O)(O)OP(=O)(O)O)[C@@H](O)[C@H]1O` [ADP], the EC50 stood at 0.0114 ± 0.0022 µM. In addition, the “IP3 response to nucleotides” value (100 μM for 30 s, pool of G418-resistant clones expressing GPR86 and Gα16) is “induced an IP3 response”.

As a reminder, the EC50 is the midpoint of the concentration-response curve.
